Experimental data taken from the supplement of paper PMC10307832.

Tests used:
Assay in all cases: relative viability (nuclei count vs DMSO), 5 days (fraction); higher = more cells survive
NCI-H647 = tested on: NCI-H647
Procedure, shortened: (§1)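 Medians of duplicate plates are given as relative viability. That measure is the nuclei count in treated wells divided by the count in vehicle wells. Counts were taken on 4× images of lung cancer cell lines in 1536-well plates, 5 days after pin-tool dosing the day after seeding with one drug alone or a fixed anchor-drug dose plus five library-drug doses (not always all listed) in √10 steps.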

H3255 = tested on: H3255
Procedure, shortened: as §1

NCI-H2347 = tested on: NCI-H2347
Procedure, shortened: as §1

NCI-H520 = tested on: NCI-H520
Procedure, shortened: as §1

RERF-LC-KJ = tested on: RERF-LC-KJ
Procedure, shortened: as §1

PC-14 = tested on: PC-14
Procedure, shortened: as §1

HCC-827 = tested on: HCC-827
Procedure, shortened: as §1

201T = tested on: 201T
Procedure, shortened: as §1

NCI-H2126 = tested on: NCI-H2126
Procedure, shortened: as §1

COR-L 105 = tested on: COR-L 105
Procedure, shortened: as §1

ChaGo-K-1 = tested on: ChaGo-K-1
Procedure, shortened: as §1

NCI-H1666 = tested on: NCI-H1666
Procedure, shortened: as §1

LC-2-ad = tested on: LC-2-ad
Procedure, shortened: as §1

NCI-H2405 = tested on: NCI-H2405
Procedure, shortened: as §1

LCLC-97TM1 = tested on: LCLC-97TM1
Procedure, shortened: as §1

NCI-H661 = tested on: NCI-H661
Procedure, shortened: as §1

NCI-H650 = tested on: NCI-H650
Procedure, shortened: as §1

EPLC-272H = tested on: EPLC-272H
Procedure, shortened: as §1

NCI-H1915 = tested on: NCI-H1915
Procedure, shortened: as §1

NCI-H23 = tested on: NCI-H23
Procedure, shortened: as §1

NCI-H2087 = tested on: NCI-H2087
Procedure, shortened: as §1

Work on `CC(=O)O[C@@]12CO[C@@H]1C[C@H](O)[C@@]1(C)C(=O)[C@H](O)C3=C(C)[C@@H](OC(=O)[C@H](O)[C@@H](NC(=O)OC(C)(C)C)c4ccccc4)C[C@@](O)([C@@H](OC(=O)c4ccccc4)[C@H]21)C3(C)C` [Docetaxel] + CCNC(=O)c1noc(-c2cc(C(C)C)c(O)cc2O)c1-c1ccc(CN2CCOCC2)cc1 [Luminespib] (partner 0.01 µM) yielded a relative viability (NCI-H647; first compound 0.0002 µM) of 0.112, a relative viability (NCI-H647; first compound 0.000632 µM) of 0.126 and a relative viability (NCI-H647; first compound 0.002 µM) of 0.147. The relative viability (NCI-H647; first compound 0.006325 µM) was 0.12, the relative viability (NCI-H647; first compound 0.02 µM) was 0.0798 and the relative viability (H3255; first compound 0.0002 µM) was 0.907. For the same compound, the relative viability (H3255; first compound 0.000632 µM) was 1.12, the relative viability (H3255; first compound 0.002 µM) was 0.755 and the relative viability (H3255; first compound 0.006325 µM) was 0.157. The relative viability (H3255; first compound 0.02 µM) was 0.309, the relative viability (NCI-H2347; first compound 0.0002 µM) was 0.513 and the relative viability (NCI-H2347; first compound 0.000632 µM) was 0.631. It also gave a relative viability (NCI-H2347; first compound 0.002 µM) of 0.39, a relative viability (NCI-H2347; first compound 0.006325 µM) of 0.311 and a relative viability (NCI-H2347; first compound 0.02 µM) of 0.34. For the same compound, the relative viability (NCI-H520; first compound 0.000632 µM) was 0.23, the relative viability (NCI-H520; first compound 0.002 µM) was 0.233 and the relative viability (NCI-H520; first compound 0.006325 µM) was 0.259. For the same compound, the relative viability (NCI-H520; first compound 0.02 µM) was 0.207, the relative viability (RERF-LC-KJ; first compound 0.0002 µM) was 1.16 and the relative viability (RERF-LC-KJ; first compound 0.000632 µM) was 0.853. It also gave a relative viability (RERF-LC-KJ; first compound 0.002 µM) of 0.353, a relative viability (RERF-LC-KJ; first compound 0.02 µM) of 0.211 and a relative viability (PC-14; first compound 0.0002 µM) of 0.199. It also gave a relative viability (PC-14; first compound 0.000632 µM) of 0.162, a relative viability (PC-14; first compound 0.002 µM) of 0.116 and a relative viability (PC-14; first compound 0.02 µM) of 0.127. The relative viability (HCC-827; first compound 0.0002 µM) was 0.588, the relative viability (HCC-827; first compound 0.000632 µM) was 0.67 and the relative viability (HCC-827; first compound 0.002 µM) was 0.244. The relative viability (HCC-827; first compound 0.006325 µM) was 0.159, the relative viability (HCC-827; first compound 0.02 µM) was 0.142 and the relative viability (201T; first compound 0.0002 µM) was 1.08. The relative viability (201T; first compound 0.000632 µM) was 0.907, the relative viability (201T; first compound 0.002 µM) was 0.8 and the relative viability (201T; first compound 0.006325 µM) was 0.485. It also gave a relative viability (201T; first compound 0.02 µM) of 0.302, a relative viability (NCI-H2126; first compound 0.0002 µM) of 0.914 and a relative viability (NCI-H2126; first compound 0.000632 µM) of 0.739. It also gave a relative viability (NCI-H2126; first compound 0.002 µM) of 0.591, a relative viability (NCI-H2126; first compound 0.006325 µM) of 0.403 and a relative viability (NCI-H2126; first compound 0.02 µM) of 0.255. The relative viability (COR-L 105; first compound 0.0002 µM) was 0.99, the relative viability (COR-L 105; first compound 0.000632 µM) was 0.713 and the relative viability (COR-L 105; first compound 0.002 µM) was 0.531. For the same compound, the relative viability (COR-L 105; first compound 0.006325 µM) was 0.595, the relative viability (COR-L 105; first compound 0.02 µM) was 0.305 and the relative viability (ChaGo-K-1; first compound 0.0002 µM) was 0.528. The relative viability (ChaGo-K-1; first compound 0.000632 µM) was 0.468, the relative viability (ChaGo-K-1; first compound 0.002 µM) was 0.251 and the relative viability (ChaGo-K-1; first compound 0.006325 µM) was 0.228. The relative viability (NCI-H1666; first compound 0.0002 µM) was 0.943, the relative viability (NCI-H1666; first compound 0.000632 µM) was 0.776 and the relative viability (NCI-H1666; first compound 0.002 µM) was 0.623. It also gave a relative viability (NCI-H1666; first compound 0.006325 µM) of 0.512, a relative viability (NCI-H1666; first compound 0.02 µM) of 0.374 and a relative viability (LC-2-ad; first compound 0.0002 µM) of 0.777. It also gave a relative viability (LC-2-ad; first compound 0.000632 µM) of 0.544, a relative viability (LC-2-ad; first compound 0.002 µM) of 0.503 and a relative viability (LC-2-ad; first compound 0.006325 µM) of 0.445. It also gave a relative viability (NCI-H2405; first compound 0.0002 µM) of 0.607, a relative viability (NCI-H2405; first compound 0.000632 µM) of 0.603 and a relative viability (NCI-H2405; first compound 0.002 µM) of 0.486. It also gave a relative viability (NCI-H2405; first compound 0.006325 µM) of 0.33, a relative viability (NCI-H2405; first compound 0.02 µM) of 0.22 and a relative viability (LCLC-97TM1; first compound 0.0002 µM) of 0.71. For the same compound, the relative viability (LCLC-97TM1; first compound 0.000632 µM) was 0.622, the relative viability (LCLC-97TM1; first compound 0.002 µM) was 0.548 and the relative viability (LCLC-97TM1; first compound 0.006325 µM) was 0.167. It also gave a relative viability (LCLC-97TM1; first compound 0.02 µM) of 0.106, a relative viability (NCI-H661; first compound 0.0002 µM) of 0.782 and a relative viability (NCI-H661; first compound 0.000632 µM) of 0.933. It also gave a relative viability (NCI-H661; first compound 0.002 µM) of 0.707, a relative viability (NCI-H661; first compound 0.006325 µM) of 0.432 and a relative viability (NCI-H661; first compound 0.02 µM) of 0.323. For the same compound, the relative viability (NCI-H650; first compound 0.0002 µM) was 0.796, the relative viability (NCI-H650; first compound 0.000632 µM) was 0.519 and the relative viability (NCI-H650; first compound 0.002 µM) was 0.212. For the same compound, the relative viability (NCI-H650; first compound 0.006325 µM) was 0.18, the relative viability (NCI-H650; first compound 0.02 µM) was 0.111 and the relative viability (EPLC-272H; first compound 0.0002 µM) was 0.133. It also gave a relative viability (EPLC-272H; first compound 0.000632 µM) of 0.316, a relative viability (EPLC-272H; first compound 0.002 µM) of 0.205 and a relative viability (EPLC-272H; first compound 0.006325 µM) of 0.0836. For the same compound, the relative viability (EPLC-272H; first compound 0.02 µM) was 0.119, the relative viability (NCI-H1915; first compound 0.0002 µM) was 0.838 and the relative viability (NCI-H1915; first compound 0.000632 µM) was 0.796. For the same compound, the relative viability (NCI-H1915; first compound 0.002 µM) was 0.467, the relative viability (NCI-H1915; first compound 0.006325 µM) was 0.141 and the relative viability (NCI-H1915; first compound 0.02 µM) was 0.0759. For the same compound, the relative viability (NCI-H23; first compound 0.0002 µM) was 0.208, the relative viability (NCI-H23; first compound 0.000632 µM) was 0.224 and the relative viability (NCI-H23; first compound 0.002 µM) was 0.233. The relative viability (NCI-H23; first compound 0.006325 µM) was 0.224, the relative viability (NCI-H23; first compound 0.02 µM) was 0.18 and the relative viability (NCI-H2087; first compound 0.0002 µM) was 0.166. For the same compound, the relative viability (NCI-H2087; first compound 0.000632 µM) was 0.189, the relative viability (NCI-H2087; first compound 0.002 µM) was 0.147 and the relative viability (NCI-H2087; first compound 0.006325 µM) was 0.168. For the same compound, the relative viability (NCI-H2087; first compound 0.02 µM) was 0.124.
